The values below come from patent US10112950B2, “Substituted imidazo[1,2-a]pyrazines as LSD1 inhibitors” (Incyte Corporation, priority 2014, dated 2018).

The structures appear in SMILES notation. A value given as a limit tells only on which side of the number the result lay.

This assay concerns the target LSD-1 enzyme (Homo sapiens (Human), UniProt O60341). The experiment in a line: LANCE LSD1/KDM1A demethylase assay (LSD1 histone demethylase biochemical assay). Conditions: 1 nM LSD-1 enzyme, 1 hour preincubation at 25° C., 0.4 μM Biotin-labeled Histone H3 peptide substrate. How it is done: LSD1 Histone Demethylase Biochemical Assay
LANCE LSD1/KDM1A demethylase assay-10 μL of 1 nM LSD-1 enzyme (ENZO BML-SE544-0050) in the assay buffer (50 mM Tris, pH 7.5, 0.01% Tween-20, 25 mM NaCl, 5 mM DTT) were preincubated for 1 hour at 25° C. with 0.8 μL compound/DMSO dotted in black 384 well polystyrene plates. […] Reactions were stopped by addition of 10 μL 1× LANCE Detection Buffer (PerkinElmer CR97-100) supplemented with 1.5 nM Eu-anti-unmodified H3K4 Antibody (PerkinElmer TRF0404), and 225 nM LANCE Ultra Streptavidin (PerkinElmer TRF102) along with 0.9 mM Tranylcypromine-HCl (Millipore 616431). After stopping the reactions plates were incubated for 30 minutes and read on a PHERAstar FS plate reader (BMG Labtech).
In general, IC50 refers to the concentration needed to halve the response being measured. Higher therefore signals a need for much substance. `COc1ccc(-c2c(-c3ccc(C#N)cc3)nc(OC[C@@H]3CCNC3)c3nccn23)cc1` [Example 30, 4-{5-(4-methoxyphenyl)-8-[(3R)-pyrrolidin-3-ylmethoxy]imidazol[1,2-a]pyrazin-6-yl}benzonitrile] had an IC50 of at most 50 nM.

Turning to `CN(C)C1CCN(c2nc(-c3ccc(C#N)cc3)c(-c3ccc4c(c3)C(O)CC4)n3ccnc23)CC1` (racemic) [Example 95, 4-[8-[4-(dimethylamino)piperidin-1-yl]-5-(3-hydroxy-2,3-dihydro-1H-inden-5-yl)imidazo[1,2-a]pyrazin-6-yl]benzonitrile], the IC50 was at most 50 nM.

On to `CNC(=O)c1cn2c(-c3ccc(C)cc3)c(-c3ccc(C#N)cc3)nc(OC[C@@H]3CCNC3)c2n1` [Example 37, 6-(4-cyanophenyl)-N-methyl-5-(4-methylphenyl)-8-[(3R)-pyrrolidin-3-ylmethoxy]imidazol-[1,2-a]pyrazine-2-carboxamide], for which the IC50 is at most 50 nM.

In turn, `Cc1ccc(-c2c(-c3ccc(C#N)cc3)nc(OC3CCN(C)C3)c3nccn23)cc1` (stereo not shown) [Example 7, 4-{5-(4-methylphenyl)-8-[(1-methylpyrrolidin-3-yl)oxy]imidazo[1,2-a]pyrazin-6-yl}benzonitrile] yielded an IC50 of at most 50 nM.

In turn, `N#Cc1ccc(-c2nc(OC[C@@H]3CCNC3)c3nccn3c2-c2ccc(N3CCCCC3)cc2)cc1` [Example 29, 4-{5-(4-piperidin-1-ylphenyl)-8-[(3R)-pyrrolidin-3-ylmethoxy]imidazo[1,2-a]pyrazin-6-yl}benzonitrile] gave an IC50 of at most 50 nM.

Take `Cc1cc(-c2c(-c3ccc(C#N)cc3)nc(N3CCC(N(C)C)CC3)c3nccn23)cc(F)c1CO` [Example 97, 4-{8-[4-(dimethylamino)piperidin-1-yl]-5-[3-fluoro-4-(hydroxymethyl)-5-methylphenyl]imidazo[1,2-a]pyrazin-6-yl}benzonitrile]: the IC50 was at most 50 nM.

For `CN1C(=O)CCc2cc(-c3c(-c4ccc(C#N)cc4)nc(N4CCC(N(C)C)CC4)c4nccn34)ccc21` [Example 102, 4-[8-[4-(dimethylamino)piperidin-1-yl]-5-(1-methyl-2-oxo-1,2,3,4-tetrahydroquinolin-6-yl)imidazo[1,2-a]pyrazin-6-yl]benzonitrile], the 50% inhibitory concentration (IC50) was at most 50 nM.

`Cc1ccc(-c2c(-c3ccc(C#N)cc3)nc(N3CCC4(CCNC4)C3)c3nccn23)cc1` (stereo not shown) [Example 19, 4-[8-(2,7-diazaspiro[4.4]non-2-yl)-5-(4-methylphenyl)imidazo[1,2-a]pyrazin-6-yl]benzonitrile] yielded an IC50 of at most 50 nM.

For the compound `CN1C(=O)COc2cc(-c3c(-c4ccc(C#N)cc4)nc(N4CCC(N(C)C)CC4)c4nccn34)cnc21` [Example 107, 4-[8-[4-(dimethylamino)piperidin-1-yl]-5-(4-methyl-3-oxo-3,4-dihydro-2H-pyrido[3,2-b][1,4]oxazin-7-yl)imidazo[1,2-a]pyrazin-6-yl]benzonitrile], the IC50 was at most 50 nM.

For the compound `Cc1ccc(-c2c(-c3ccc(C#N)cc3)nc(OC[C@@H]3CCNC3)c3nc(CN4CCC4)cn23)cc1` [Example 43, 4-{2-(azetidin-1-ylmethyl)-5-(4-methylphenyl)-8-[(3R)-pyrrolidin-3-ylmethoxy]imidazol[1,2-a]pyrazin-6-yl}benzonitrile], the IC50 is at most 50 nM.

On to `CN(C)C1CCN(c2nc(-c3ccc(C#N)cc3)c(-c3cnc4c(cnn4C)c3)n3ccnc23)CC1` [Example 58, 4-[8-[4-(dimethylamino)piperidin-1-yl]-5-(1-methyl-1H-pyrazolo[3,4-b]pyridin-5-yl)imidazo[1,2-a]pyrazin-6-yl]benzonitrile], for which the IC50 was at most 50 nM.

In the case of `Cc1cc(-c2c(-c3ccc(C#N)cc3)nc(OC[C@@H]3CCCN(C)C3)c3nccn23)cc(F)c1CO` [Example 81, 4-(5-[3-fluoro-4-(hydroxymethyl)-5-methylphenyl]-8-{[(3R)-1-methylpiperidin-3-yl]methoxy}imidazo[1,2-a]pyrazin-6-yl)benzonitrile], the IC50 is at most 50 nM.

For `CN(C)C1CCN(c2nc(-c3ccc(C#N)cc3)c(-c3ccc(N4CCCC4=O)nc3)n3ccnc23)CC1` [Example 57, 4-{8-[4-(dimethylamino)piperidin-1-yl]-5-[6-(2-oxopyrrolidin-1-yl)pyridin-3-yl]imidazo[1,2-a]pyrazin-6-yl}benzonitrile], the IC50 is at most 50 nM.

For `CN(C)C1CCN(c2nc(-c3ccc(C#N)cc3)c(-c3ccc(N4CCOC4=O)nc3)n3ccnc23)CC1` [Example 67, 4-{8-[4-(dimethylamino)piperidin-1-yl]-5-[6-(2-oxo-1,3-oxazolidin-3-yl)pyridin-3-yl]imidazo[1,2-a]pyrazin-6-yl}benzonitrile], the IC50 was at most 50 nM.

In the case of `CN(C)C1CCN(c2nc(-c3ccc(C#N)cc3)c(-c3ccc4c(c3)c(CO)nn4C)n3ccnc23)CC1` [Example 110, 4-{8-[4-(dimethylamino)piperidin-1-yl]-5-[3-(hydroxymethyl)-1-methyl-1H-indazol-5-yl]imidazo[1,2-a]pyrazin-6-yl}benzonitrile], the IC50 was at most 50 nM.

On to `Cc1nc2cc(-c3c(-c4ccc(C#N)cc4)nc(N4CCC(N(C)C)CC4)c4nccn34)ccc2n1C` [Example 115, 4-[8-[4-(dimethylamino)piperidin-1-yl]-5-(1,2-dimethyl-1H-benzimidazol-5-yl)imidazo[1,2-a]pyrazin-6-yl]benzonitrile], for which the IC50 was at most 50 nM.

Consider `CN1CCC[C@@H](COc2nc(-c3ccc(C#N)cc3)c(-c3cc(F)c4c(c3)CCC4O)n3ccnc23)C1` (stereo partly drawn) [Example 88, 4-(5-(7-fluoro-1-hydroxy-2,3-dihydro-1H-inden-5-yl)-8-{[(3R)-1-methylpiperidin-3-yl]methoxy}imidazo[1,2-a]pyrazin-6-yl)benzonitrile], for which the IC50 is at most 50 nM.

Turning to `Cc1ccc(-c2c(-c3ccc(C#N)cc3)nc(OC[C@@H]3CCCN(C)C3)c3nccn23)c(CO)c1` [Example 90, 4-(5-[2-(hydroxymethyl)-4-methylphenyl]-8-{[(3R)-1-methylpiperidin-3-yl]methoxy}imidazo[1,2-a]pyrazin-6-yl)benzonitrile], the IC50 was at most 50 nM.

`Cc1ccc(-c2c(-c3ccc(C#N)cc3)nc(N3CCCN(C)CC3)c3nccn23)cc1` [Example 18, 4-[8-(4-methyl-1,4-diazepan-1-yl)-5-(4-methylphenyl)imidazo[1,2-a]pyrazin-6-yl]benzonitrile] displayed an IC50 of at most 50 nM.

In the case of `Cc1ccc(-c2c(-c3ccc(C#N)cc3)nc(OC[C@@H]3CCNC3)c3nccn23)cc1` [Example 1, 4-{5-(4-methylphenyl)-8-[(3R)-pyrrolidin-3-ylmethoxy]imidazo[1,2-a]pyrazin-6-yl}benzonitrile], the IC50 is at most 50 nM.

On to `Cc1ccc(-c2c(-c3ccc(C#N)cc3)nc(OC[C@@H]3CCCN(C)C3)c3nccn23)cc1` [Example 12, 4-(5-(4-methylphenyl)-8-{[(3R)-1-methylpiperidin-3-yl]methoxy}imidazo[1,2-a]pyrazin-6-yl)benzonitrile], for which the IC50 was at most 50 nM.

With `CN1CCC[C@@H](COc2nc(-c3ccc(C#N)cc3)c(-c3cnc4c(ccn4C)c3)n3ccnc23)C1` [Example 53, 4-[8-{[(3R)-1-methylpiperidin-3-yl]methoxy}-5-(1-methyl-1H-pyrrolo[2,3-b]pyridin-5-yl)imidazo[1,2-a]pyrazin-6-yl]benzonitrile], the IC50 was at most 50 nM.
